Data published in the Kinase Knowledgebase extract (Sharma et al. 2016).

Molecular target: EGFR (UniProt P00533)
Test: Inhibition of EGFR Kinase Activity

Sequence of EGFR (P00533 whole entry, looked up): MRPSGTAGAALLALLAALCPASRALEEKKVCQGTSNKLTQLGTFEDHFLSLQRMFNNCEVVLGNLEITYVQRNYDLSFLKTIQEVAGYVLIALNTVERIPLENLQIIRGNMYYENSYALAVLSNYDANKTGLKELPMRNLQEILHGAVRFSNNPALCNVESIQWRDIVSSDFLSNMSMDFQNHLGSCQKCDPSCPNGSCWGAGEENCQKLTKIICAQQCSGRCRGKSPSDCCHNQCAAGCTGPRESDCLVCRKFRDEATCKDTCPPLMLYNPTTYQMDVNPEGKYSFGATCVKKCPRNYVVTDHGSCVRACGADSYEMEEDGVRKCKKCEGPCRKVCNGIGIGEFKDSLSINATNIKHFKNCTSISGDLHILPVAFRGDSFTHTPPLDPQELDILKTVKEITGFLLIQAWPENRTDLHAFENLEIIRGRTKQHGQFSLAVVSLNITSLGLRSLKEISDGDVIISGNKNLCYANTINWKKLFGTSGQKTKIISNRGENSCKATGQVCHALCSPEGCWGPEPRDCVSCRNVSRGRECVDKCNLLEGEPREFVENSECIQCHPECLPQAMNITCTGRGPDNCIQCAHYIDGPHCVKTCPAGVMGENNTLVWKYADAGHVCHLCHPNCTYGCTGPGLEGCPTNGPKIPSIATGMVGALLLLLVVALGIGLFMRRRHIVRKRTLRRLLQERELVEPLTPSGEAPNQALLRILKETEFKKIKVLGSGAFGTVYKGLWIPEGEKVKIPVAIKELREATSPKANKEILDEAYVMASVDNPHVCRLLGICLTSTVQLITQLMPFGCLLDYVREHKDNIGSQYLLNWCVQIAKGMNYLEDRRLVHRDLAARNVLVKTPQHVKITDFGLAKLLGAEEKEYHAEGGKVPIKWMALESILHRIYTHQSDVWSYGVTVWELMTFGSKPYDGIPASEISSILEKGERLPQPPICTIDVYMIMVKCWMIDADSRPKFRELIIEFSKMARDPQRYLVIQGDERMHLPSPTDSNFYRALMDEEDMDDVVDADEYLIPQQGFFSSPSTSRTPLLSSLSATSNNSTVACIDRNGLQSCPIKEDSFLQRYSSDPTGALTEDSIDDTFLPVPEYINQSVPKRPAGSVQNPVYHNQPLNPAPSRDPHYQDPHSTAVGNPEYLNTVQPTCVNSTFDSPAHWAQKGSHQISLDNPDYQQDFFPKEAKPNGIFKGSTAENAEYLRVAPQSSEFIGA

Row | Structure (SMILES) | IC50 [µM]
1 | C=CC(=O)Nc1cccc(Nc2ncnc(Nc3cccc(CC(=O)OC)c3)n2)c1 | < 50
2 | C=CCN(c1ccc(OCc2ccccc2)cc1)c1ncnc(Nc2cccc(NC(=O)C#CC)c2)n1 | < 50
3 | C=CC(=O)Nc1cccc(Nc2ncnc(N(C)c3ccc4c(ccn4Cc4ccccc4)c3)n2)c1 | < 50
4 | C=CCN(c1ccc(OCCOC)c(OC)c1)c1ncnc(Nc2cccc(NC(=O)C=C)c2)n1 | < 50
5 | C=CC(=O)Nc1ccc(Nc2ncnc(N(CC)c3cccc(Cl)c3)n2)cc1 | < 50
6 | C=CCN(c1cccc(C)c1)c1ncnc(Nc2ccc(NC(=O)C=C)cc2)n1 | < 50
7 | CC#CC(=O)Nc1cccc(Nc2ncnc(Nc3ccc(OC)c(OC)c3)n2)c1 | < 50
8 | C=CC(=O)N(CCCN1CCOCC1)c1cccc(Nc2ncnc(Nc3cccc(C)c3)n2)c1 | < 50
9 | C=CC(=O)N(CCCN1CCOCC1)c1cccc(Nc2ncnc(Nc3ccc(OC)c(OC)c3)n2)c1 | < 50
10 | C=CC(=O)Nc1cc(Nc2ncnc(N(C)c3cccc(Cl)c3)n2)ccc1OCCCN1CCOCC1 | < 50
11 | C=CC(=O)Nc1ccc(Nc2ncnc(Nc3cccc(C(N)=O)c3)n2)cc1 | < 50
12 | CC#CC(=O)Nc1cccc(Nc2ncnc(N(C)c3cccc(S(=O)(=O)c4ccc([N+](=O)[O-])cc4)c3)n2)c1 | < 50
13 | C=CC(=O)Nc1cccc(Nc2ncnc(Nc3ccc(OCCOC)c(OC)c3)n2)c1 | < 50
14 | C=CC(=O)Nc1cc(Nc2ncnc(N(C)c3ccc4c(cnn4Cc4ccccc4)c3)n2)ccc1OCCCN1CCOCC1 | < 50
15 | C=CC(=O)Nc1ccc(Nc2ncnc(N(CC)c3ccc(OCc4ccccc4)cc3)n2)cc1 | < 50
16 | C=CC(=O)N(CCCN1CCOCC1)c2cccc(Nc3ncnc(Nc4ccc5NN(=Cc5c4)Cc6ccccn6)n3)c2 | < 50
17 | C=CC(=O)Nc1ccc(Nc2ncnc(N(C)c3cccc(CC(=O)OC)c3)n2)cc1 | < 50
18 | C=CC(=O)Nc1cccc(Nc2ncnc(N(C)c3cccc(C(N)=O)c3)n2)c1 | < 50
19 | C=CC(=O)Nc1ccc(Nc2ncnc(N(CC)c3ccc(OCC)c(OCC)c3)n2)cc1 | < 50
20 | CC#CC(=O)Nc1cc(Nc2ncnc(Nc3ccc4c(cnn4Cc4ccccc4)c3)n2)ccc1OCCCC1CCN(C)CC1 | < 50
21 | C=CCN(c1ccc(OCC)c(OCC)c1)c1ncnc(Nc2ccc(NC(=O)C=C)cc2)n1 | < 50
22 | C=CC(=O)Nc1cc(Nc2ncnc(Nc3ccc4c(ccn4Cc4ccccc4)c3)n2)ccc1OCCCC1CCN(C)CC1 | < 50
23 | C=CC(=O)Nc1cccc(Nc2ncnc(NN3CCCc4ccc(C(F)(F)F)cc43)n2)c1 | < 50
24 | C=CC(=O)Nc1cccc(Nc2ncnc(N(C)c3ccc4c(cnn4Cc4ccccn4)c3)n2)c1 | < 50

Row | Structure (SMILES) | IC50 [µM]
25 | C=CC(=O)Nc1ccc(Nc2ncnc(Nc3cc(Cl)ccc3C)n2)cc1 | < 50
26 | C=CCN(c1cccc(Cl)c1)c1ncnc(Nc2cccc(NC(=O)C=C)c2)n1 | < 50
27 | C#CCC(=O)Nc1cccc(Nc2ncnc(NN3CCCc4cc(Cl)ccc43)n2)c1 | < 50
28 | C=CC(=O)N(CCCN1CCOCC1)c1cccc(Nc2ncnc(Nc3ccc(C(=O)OC)cc3)n2)c1 | < 50
29 | C=CC(=O)Nc1cccc(Nc2ncnc(N(C)c3cccc(C)c3)n2)c1 | < 50
30 | C=CC(=O)Nc1cccc(Nc2ncnc(N(CC)c3cc(OC)c(OC)c(OCCN4CCOCC4)c3)n2)c1 | < 50
31 | C=CC(=O)Nc1cccc(Nc2ncnc(N(C)c3ccc(F)c(Cl)c3)n2)c1 | < 50
32 | C=CC(=O)Nc1cccc(Nc2ncnc(N(C)C3CC3c3ccc(Cl)cc3)n2)c1 (stereo not given) | < 50
33 | C=CC(=O)Nc1ccc(Nc2ncnc(Nc3ccc(OCCC)c(OCCC)c3)n2)cc1 | < 50
34 | C=CC(=O)Nc1ccc(Nc2ncnc(NC3CC3c3ccc(Cl)cc3)n2)cc1 (stereo not given) | < 50
35 | C=CCN(c1cccc(CC(=O)OC)c1)c1ncnc(Nc2cccc(NC(=O)C#CC)c2)n1 | < 50
36 | C=CCN(c1ccc(OC)c(OC)c1)c1ncnc(Nc2cccc(NC(=O)C=C)c2)n1 | < 50
37 | C=CC(=O)N(OCCCN1CCOCC1)c1cccc(Nc2ncnc(NN3CCCc4ccc(Cl)cc43)n2)c1 | < 50
38 | C=CC(=O)Nc1ccc(Nc2ncnc(Nc3cccc4ccccc34)n2)cc1 | < 50
39 | C=CC(=O)Nc1ccc(Nc2ncnc(Nc3cc(OC)c(OC)c(OC)c3)n2)cc1 | < 50
40 | C=CC(=O)N(CCCN1CCOCC1)c1cccc(Nc2ncnc(N(C)C3CC3c3ccccc3)n2)c1 (stereo not given) | < 50
41 | C=CC(=O)Nc1cccc(Nc2ncnc(N(C)c3ccc4c(cnn4Cc4ccccc4)c3)n2)c1 | < 50
42 | C=CC(=O)Nc1cc(Nc2ncnc(N(C)c3ccc4c(cnn4Cc4ccccc4)c3)n2)ccc1OC | < 50
43 | C=CC(=O)Nc1ccc(Nc2ncnc(N(C)n3c(=O)n(C(=O)C(C)(C)C)c4ccccc43)n2)cc1 | < 50
44 | C=CC(=O)Nc1cccc(Nc2ncnc(Nc3cccc(C(N)=O)c3)n2)c1 | < 50
45 | CC#CC(=O)Nc1cccc(Nc2ncnc(Nc3cc(Cl)ccc3C)n2)c1 | < 50
46 | C=CC(=O)Nc1cccc(Nc2ncnc(NC3CC3c3ccc(Cl)cc3)n2)c1 (stereo not given) | < 50
47 | C=CCN(c1ccc(F)c(Cl)c1)c1ncnc(Nc2cccc(NC(=O)C#CC)c2)n1 | < 50
48 | C=CC(=O)Nc1ccc(Nc2ncnc(Nc3ccc4NN(=Cc4c3)Cc5ccccn5)n2)cc1 | < 50

Row | Structure (SMILES) | IC50 [µM]
49 | C=CCN(c1ccc(OCCOC)c(OC)c1)c1ncnc(Nc2ccc(NC(=O)C=C)cc2)n1 | < 50
50 | C=CC(=O)Nc1ccc(Nc2ncnc(N(C)c3ccc(OCc4ccccc4)c(Cl)c3)n2)cc1 | < 50
51 | CC#CC(=O)Nc1cccc(Nc2ncnc(N(C)C3CC3c3ccc(Cl)cc3)n2)c1 (stereo not given) | < 50
52 | C=CCN(c1ccc(OCC)c(OCC)c1)c1ncnc(Nc2cccc(NC(=O)C#CC)c2)n1 | < 50
53 | C=CC(=O)Nc1cccc(Nc2ncnc(Nc3ccc(OCCO)cc3)n2)c1 | < 50
54 | CC#CC(=O)Nc1cccc(Nc2ncnc(N(CC)c3cc(OC)c(OC)c(OCCN4CCOCC4)c3)n2)c1 | < 50
55 | CCN(c1ccc2NN(=Cc2c1)Cc3ccccn3)c4ncnc(Nc5cccc(NC(=O)C#CC)c5)n4 | < 50
56 | C=CC(=O)Nc1ccc(Nc2ncnc(N(C)c3ccc(OCCOC)c(OC)c3)n2)cc1 | < 50
57 | C=CC(=O)Nc1ccc(Nc2ncnc(N(CC)n3c(=O)[nH]c4ccccc43)n2)cc1 | < 50
58 | C=CCN(c1ncnc(Nc2cccc(NC(=O)C=C)c2)n1)c1cc(Cl)cc2ccccc12 | < 50
59 | C=CC(=O)Nc1cccc(Nc2ncnc(Nc3ccc4c(cnn4Cc4cccc(F)c4)c3)n2)c1 | < 50
60 | C=CC(=O)Nc1cccc(Nc2ncnc(NN3CCCc4cc(C)ccc43)n2)c1 | < 50
61 | C=CC(=O)Nc1cccc(Nc2ncnc(NN3CCCc4cc(Cl)ccc43)n2)c1 | < 50
62 | CC#CC(=O)Nc1cccc(Nc2ncnc(Nc3ccc(C(=O)OC)cc3)n2)c1 | < 50
63 | C=CCN(c1ncnc(Nc2cccc(NC(=O)C#CC)c2)n1)c1cc(Cl)cc2ccccc12 | < 50
64 | C=CC(=O)Nc1ccc(Nc2ncnc(N(C)c3cccc(C(N)=O)c3)n2)cc1 | < 50
65 | C=CC(=O)N1CCc2ccc(Nc3ncnc(Nc4ccc5c(cnn5Cc5ccccc5)c4)n3)cc21 | < 50
66 | CC#CC(=O)Nc1cccc(Nc2ncnc(N(C)c3cc(Cl)ccc3C)n2)c1 | < 50
67 | C=CC(=O)Nc1cccc(Nc2ncnc(N(C)c3ccc(OCC)c(OCC)c3)n2)c1 | < 50
68 | C=CC(=O)Nc1cc(Nc2ncnc(Nc3ccc4c(ccn4Cc4ccccc4)c3)n2)ccc1OCCCN1CCOCC1 | < 50
69 | CCN(c1ccc2NN(=Cc2c1)Cc3ccccn3)c4ncnc(Nc5ccc(NC(=O)C=C)cc5)n4 | < 50
70 | C=CC(=O)Nc1cccc(Nc2ncnc(Nc3cc(Cl)cc4ccccc34)n2)c1 | < 50
71 | C=CC(=O)Nc1cccc(Nc2ncnc(Nn3c(=O)n(C(=O)C(C)(C)C)c4ccccc43)n2)c1 | < 50
72 | C=CC(=O)Nc1cccc(Nc2ncnc(N(CC)c3ccc4c(cnn4Cc4ccccc4)c3)n2)c1 | < 50

Row | Structure (SMILES) | IC50 [µM]
73 | C=CC(=O)Nc1ccc(Nc2ncnc(N(CC)c3cccc(S(=O)(=O)c4ccc([N+](=O)[O-])cc4)c3)n2)cc1 | < 50
74 | C=CCN(c1cc(OC)c(OC)c(OCCN2CCOCC2)c1)c1ncnc(Nc2ccc(NC(=O)C=C)cc2)n1 | < 50
75 | C=CC(=O)Nc1cccc(Nc2ncnc(N(CC)n3c(=O)[nH]c4ccccc43)n2)c1 | < 50
76 | C=CCN(c1cccc(Cl)c1)c1ncnc(Nc2ccc(NC(=O)C=C)cc2)n1 | < 50
77 | CC#CC(=O)Nc1cc(Nc2ncnc(N(C)c3ccc4c(cnn4Cc4ccccc4)c3)n2)ccc1OCCCC1CCN(C)CC1 | < 50
78 | C=CC(=O)Nc1cccc(Nc2ncnc(N(C)c3cc(Cl)cc4ccccc34)n2)c1 | < 50
79 | CC#CC(=O)Nc1cccc(Nc2ncnc(Nc3ccc4c(cnn4Cc4ccccc4)c3)n2)c1 | < 50
80 | C=CC(=O)Nc1cccc(Nc2ncnc(Nc3cc(OC)c(OC)c(OCCN4CCOCC4)c3)n2)c1 | < 50
81 | CC#CC(=O)Nc1cccc(Nc2ncnc(N(CC)c3cccc(C)c3)n2)c1 | < 50
82 | C=CC(=O)Nc1ccc(Nc2ncnc(N(CC)c3ccc(F)c(Cl)c3)n2)cc1 | < 50
83 | C=CC(=O)Nc1ccc(Nc2ncnc(Nc3ccc(OCC)c(OCC)c3)n2)cc1 | < 50
84 | C=CCC(=O)Nc1cccc(Nc2ncnc(Nc3ccc4NN(=Cc4c3)Cc5ccccn5)n2)c1 | < 50
85 | C=CC(=O)Nc1ccc(Nc2ncnc(N(CC)c3cccc4ccccc34)n2)cc1 | < 50
86 | C=CC(=O)Nc1cccc(Nc2ncnc(Nc3ccc(S(=O)(=O)c4ccccc4)cc3)n2)c1 | < 50
87 | C=CC(=O)Nc1ccc(Nc2ncnc(N(CC)c3cc(Cl)ccc3C)n2)cc1 | < 50
88 | C=CCN(c1cccc(C(N)=O)c1)c1ncnc(Nc2ccc(NC(=O)C=C)cc2)n1 | < 50
89 | C=CC(=O)Nc1cccc(Nc2ncnc(N(C)c3cccc4ccccc34)n2)c1 | < 50
90 | C=CCN(c1ccc(OC)c(OCCOC)c1)c1ncnc(Nc2ccc(NC(=O)C=C)cc2)n1 | < 50
91 | CC#CC(=O)Nc1cccc(Nc2ncnc(Nn3c(=O)n(C(=O)C(C)(C)C)c4ccccc43)n2)c1 | < 50
92 | C=CC(=O)Nc1ccc(Nc2ncnc(Nc3cccc(S(=O)(=O)c4ccc([N+](=O)[O-])cc4)c3)n2)cc1 | < 50
93 | C=CCN(c1ncnc(Nc2cccc(NC(=O)C#CC)c2)n1)n1c(=O)[nH]c2ccccc21 | < 50
94 | C=CC(=O)Nc1ccc(Nc2ncnc(Nc3cccc(CC(=O)OC)c3)n2)cc1 | < 50
95 | C=CCN(c1ccc(OC)c(OC)c1)c1ncnc(Nc2cccc(NC(=O)C#CC)c2)n1 | < 50
